{
  "source": "patent US20220133747A1",
  "about": "“ESTROGEN RECEPTOR INHIBITORS AND USES THEROF” (The Regents of the University of California, priority 2018, published 2022)",
  "key": {"ERα": {"biological_target": "T1, ERα (Homo sapiens, UniProt P03372)", "T1 construct": "endogenous in cells; host or cells: MCF-7 human breast cancer cells (ATCC)", "T1 sequence (P03372 1-595)": "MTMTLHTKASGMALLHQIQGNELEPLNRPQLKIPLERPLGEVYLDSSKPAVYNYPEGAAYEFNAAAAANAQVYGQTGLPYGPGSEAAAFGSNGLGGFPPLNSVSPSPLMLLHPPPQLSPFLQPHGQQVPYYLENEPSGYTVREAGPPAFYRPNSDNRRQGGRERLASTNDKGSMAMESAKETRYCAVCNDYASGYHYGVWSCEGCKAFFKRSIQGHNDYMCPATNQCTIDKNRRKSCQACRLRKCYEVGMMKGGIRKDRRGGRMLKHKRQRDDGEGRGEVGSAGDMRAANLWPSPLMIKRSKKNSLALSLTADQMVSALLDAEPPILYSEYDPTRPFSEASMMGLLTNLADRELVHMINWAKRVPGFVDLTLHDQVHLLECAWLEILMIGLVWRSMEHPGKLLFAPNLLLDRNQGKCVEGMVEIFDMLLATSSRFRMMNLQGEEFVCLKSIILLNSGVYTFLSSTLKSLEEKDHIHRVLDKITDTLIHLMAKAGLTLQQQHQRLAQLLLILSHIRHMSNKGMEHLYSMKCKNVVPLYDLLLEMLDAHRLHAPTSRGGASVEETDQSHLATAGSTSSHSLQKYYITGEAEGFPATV", "experiment": "Downregulation of ER protein, PAGE and Western immunoblot in MCF-7 cells", "assay_type": "cell-based", "conditions": "100 nM, 4 hours, phenol-red free medium without FBS", "description": "(§1) FIGS. 20A-20C show biologic activity of selected SERD candidates. […] ER-positive MCF-7 cells were treated in phenol-red free RPMI 1640 without FBS and containing vehicle control (CON) or 100 nM concentrations of either fulvestrant (FX) or antiestrogens 105, 109, 121, 140, 151, 160 or SERD128 in vitro. After 4 hours, cells were harvested and processed for PAGE and Western immunoblots using ERα antibody (1D5, Thermofisher Scientific). RPL13A was used as a loading control. […] Cells were dosed with either E2 alone or with SERDs combined with E2 in phenol redfree medium with 0.1% dextran-coated charcoal-treated FBS in luminometer plates. Data are presented as relative light units (RLU) relative to that of E2 alone in three replicate assays (4 wells per replicate) f SEM. Treatment with E2 alone induced a 12-fold induction of ER-dependent luciferase activity quantified as RLU relative to vehicle control-treated samples.\nMCF7 cells were plated in regular medium. After 24 hrs, cells were incubated in the presence of antiestrogens or fulvestrant for 4 hrs in phenol-red free medium without FBS. Cell lysates were prepared using RIPA buffer, and protein concentration was determined using the BCA Protein Assay Kit (PIERCE/ThermoFisher Scientific). Forty micrograms of total cell protein was resolved by 4-15% SDS-PAGE, transferred to a PVDF membrane and probed with antibody directed against ERα (1D5, 1:100, ThermoFisher cat #MA5-13191). RPL13A (dilution 1:1000, Invitrogen/ThermoFisher cat #PA5-58528) was used as loading control."}, "[1]": {"system": "ER-dependent transcription", "experiment": "ERE-luciferase T47D reporter, ER-dependent transcriptional activity", "assay_type": "cell-based, human", "conditions": "E2 alone, 2 nM", "description": "as §1\nA stable ER-positive T47D ERE luciferase reporter cell line, in which the ERE and the reporter luciferase gene are consistently expressed in the cell line were used in this study (Signosis). […] Lysate was mixed 1:1 with luciferase substrate (Promega), and luminescence was measured using a MLX microtiter plate luminometer (Dynex) and quantified as relative light units (RLU) according to established procedures. Total protein was quantified using BioRad Protein Assay (BioRad)."}, "ER+ early breast cancer": {"system": "ER+ early breast cancer", "conditions": "cited from earlier work"}},
  "data": [
    {"compound": "C[C@]12C[C@H](Oc3ccc(NC(=O)CCCCN4CCCCC4)c(F)c3)[C@@H]3c4ccc(O)cc4CC[C@H]3[C@@H]1CC[C@@H]2O", "note": "[SERD140, N-(4-(((8S,9S,11S,13S,14S,17S)-3,17-Dihydroxy-13-methyl-7,8,9,11,12,13,14,15,16,17-deca-hydro-6H-cyclopenta[a]phenanthren-11-yl)oxy)-2-fluorophenyl)-5-(piperidin-1-yl)pentan-amide]", "values": [
      {"measurement": "downregulation of ER protein (ERα protein levels)", "setting": "ERα", "value": "most effective in reducing ER protein levels"}
    ]},
    {"compound": "C[C@]12CC[C@@H]3c4ccc(O)cc4CC[C@H]3[C@@H]1CC[C@@H]2O", "note": "[E2, estradiol-17β, reference compound]", "values": [
      {"measurement": "induction of ER-dependent luciferase activity (RLU relative to vehicle control)", "setting": "[1]", "value": 12, "unit": "fold"}
    ]},
    {"compound": "CC/C(=C(\\c1ccccc1)c1ccc(OCCN(C)C)cc1)c1ccccc1", "note": "[Tamoxifen]", "values": [
      {"measurement": "reduction in disease recurrence", "setting": "ER+ early breast cancer", "value": 39, "unit": "%"},
      {"measurement": "reduction in mortality", "setting": "ER+ early breast cancer", "value": 31, "unit": "%"}
    ]}
  ]
}
